Test results taken from US5326770A, “Monoamine oxidase-B (MAO-B) inhibitory 5-substituted 2,4-thiazolidinediones useful in treating memory disorders of mammals” (priority 1992, dated 1994).

Columns and labels:
MAO-A = target: T1, MAO-A (Rattus norvegicus, UniProt P21396); assay: Monoamine oxidase-A (MAO-A) inhibition assay; assay type: biochemical; conditions: Table II
T1 construct: Both Forms of Monoamine Oxidase in the Rat Brain; from tissue
T1 sequence (P21396 1-526): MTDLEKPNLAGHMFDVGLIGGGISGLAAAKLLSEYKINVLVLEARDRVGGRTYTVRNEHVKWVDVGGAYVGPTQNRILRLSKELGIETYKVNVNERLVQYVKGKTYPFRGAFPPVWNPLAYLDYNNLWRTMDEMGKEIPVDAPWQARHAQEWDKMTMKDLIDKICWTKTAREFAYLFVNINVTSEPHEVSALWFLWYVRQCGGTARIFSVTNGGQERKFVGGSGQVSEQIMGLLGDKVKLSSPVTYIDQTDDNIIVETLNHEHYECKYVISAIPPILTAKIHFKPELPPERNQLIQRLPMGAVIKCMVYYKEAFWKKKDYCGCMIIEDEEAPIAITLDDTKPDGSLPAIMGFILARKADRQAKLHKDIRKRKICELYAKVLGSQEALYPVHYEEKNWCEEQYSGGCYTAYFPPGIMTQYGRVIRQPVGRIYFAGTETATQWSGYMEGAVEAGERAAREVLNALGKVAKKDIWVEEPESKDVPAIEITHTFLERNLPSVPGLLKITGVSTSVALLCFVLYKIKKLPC

MAO-B = target: T2, MAO-B (Rattus norvegicus, UniProt P19643); assay: Monoamine oxidase-B (MAO-B) inhibition assay; assay type: biochemical; conditions: for IC50: Table II; for Ratio A/B: ratio of MAO-A IC50 to MAO-B IC50
T2 construct: Both Forms of Monoamine Oxidase in the Rat Brain; from tissue
T2 sequence (P19643 1-520): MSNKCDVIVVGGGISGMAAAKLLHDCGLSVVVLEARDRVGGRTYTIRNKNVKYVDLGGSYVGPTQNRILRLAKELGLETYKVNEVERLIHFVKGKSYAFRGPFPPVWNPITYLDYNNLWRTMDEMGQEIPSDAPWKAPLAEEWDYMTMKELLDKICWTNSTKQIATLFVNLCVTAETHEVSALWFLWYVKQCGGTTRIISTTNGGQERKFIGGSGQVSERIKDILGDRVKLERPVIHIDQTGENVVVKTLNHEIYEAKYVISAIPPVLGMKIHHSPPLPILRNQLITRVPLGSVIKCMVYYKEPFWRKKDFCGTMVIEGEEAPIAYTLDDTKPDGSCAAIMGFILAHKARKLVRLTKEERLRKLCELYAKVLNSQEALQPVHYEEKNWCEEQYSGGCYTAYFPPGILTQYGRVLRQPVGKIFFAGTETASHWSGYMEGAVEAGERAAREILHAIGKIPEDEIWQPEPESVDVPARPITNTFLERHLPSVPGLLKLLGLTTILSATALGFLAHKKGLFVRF

AMPT test (ED50) = assay type: in vivo; conditions: Table II; method not described

| SMILES | IC50 (MAO-A) | IC50 (MAO-B) | Ratio A/B (MAO-B) | ED50 (AMPT test (ED50)) |
| --- | --- | --- | --- | --- |
| N#CCCCCN1C(=O)SC(=Cc2cccc(OCc3ccccc3)c2)C1=O [Example 3] | > 1000 µM | 0.7 µM | > 1428 |  |
| N#CCCCN1C(=O)SC(=Cc2ccc(OCc3cccc(Cl)c3)cc2)C1=O [Example 9] | 30 µM | 100 µM | < 1 |  |
| O=C1NC(=O)C(=Cc2ccc(OCCc3ccccc3)cc2)S1 [Example 4, 5-[4-(2-Phenylethoxy)phenylmethylene]-2,4-thiazolidinedione] | 30 µM | 0.1 µM | > 300 |  |
| N#CCCCN1C(=O)SC(=Cc2cccc(OCc3ccccc3)c2)C1=O [Example 2, 2,4-Dioxo-5-[3-(phenylmethoxy)-phenylmethylene]-4-thiazolidinebutanenitrile] | > 5000 µM | 0.1 µM | > 50000 |  |
| CCCCCCOc1ccc(CC2SC(=O)NC2=O)cc1 (stereo not shown) [Example 6, 5-[(4-Hexyloxyphenyl)methyl]-2,4-thiazolidinedione] | 10 µM | 0.1 µM | 100 | 6.71 mg/kg |

Second part, led by results:

| IC50 (MAO-A) | IC50 (MAO-B) | Ratio A/B (MAO-B) | SMILES | ED50 (AMPT test (ED50)) |
| --- | --- | --- | --- | --- |
| > 100 µM | 30 µM | > 3 | O=C1NC(=O)C(=Cc2ccc(OCc3cccc(Cl)c3)cc2)S1 [Example 8, 5-{4-[(3-Chlorophenyl)methoxy]phenylmethylene}-2,4-thiazolidinedione] |  |
| 30 µM | 2 µM | 15 | N#CCN1C(=O)SC(=Cc2ccc(OCCc3ccccc3)cc2)C1=O [Example 5, 2,4-Dioxo-5-[4-(2-phenylethoxy)phenylmethylene]-3-thiazolidineacetonitrile] |  |
| 30 µM | 0.1 µM | 300 | O=C1NC(=O)C(Cc2ccc(OCC34CC5CC(CC(C5)C3)C4)cc2)S1 (stereo not shown) [Example 7, 5-[4-(3-Adamantylmethoxy)phenylmethyl]-2,4-thiazolidinedione] |  |
| 100 µM | 100 µM | 1 | O=C1NC(=O)C(=Cc2cccc(OCc3ccccc3)c2)S1 [Example 1, 5-[3-(Phenylmethoxy)phenylmethyl-ene]-2,4-thiazolidinedione] |  |
